# Data taken from PubChem BioAssay AID248 (DTP/NCI, 2004).
# “And” between values parts separate entries of the source, which are not always exact repeats. Equal values may be shown once. Inconclusive results and toxic doses are left out. Square brackets hold non-standard residues; d marks the D form. Peptide text beside a SMILES is read from it. ξ: configuration not given here. ξV = CC(C)C(N)C(=O)O
# Tested on: L1210 leukemia ip in BDF1 mice, survival T/C
# Test: NCI In Vivo Anticancer Drug Screen. Data for tumor model L1210 Leukemia (intraperitoneal) in B6D2F1 (BDF1) mice
# Settings: endpoint: mean survival time, higher = longer survival
# In short: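 In this screen, tumor-bearing mice given compound are compared to those given vehicle, and their survival values are reported as a treated-to-control quotient.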
# [1] = dose: 5.0 mg/kg/injection, schedule: Q01DX009 (ip), vehicle: Klucel (hydroxypropylcellulose) (HPC)
# [2] = dose: 100.0 mg/kg/injection, schedule: Q01DX009 (ip), vehicle: Klucel (hydroxypropylcellulose) (HPC)
# [3] = dose: 200.0 mg/kg/injection, schedule: Q01DX009 (ip), vehicle: Klucel (hydroxypropylcellulose) (HPC)
# [4] = dose: 100.0 mg/kg/injection, schedule: Q01DX009 (ip), vehicle: saline with Tween-80
# [5] = dose: 100.0 mg/kg/injection, schedule: Q04DX003 (ip), vehicle: saline with Tween-80
# [6] = dose: 200.0 mg/kg/injection, schedule: Q04DX003 (ip), vehicle: saline with Tween-80
# [7] = dose: 400.0 mg/kg/injection, schedule: Q04DX003 (ip), vehicle: saline with Tween-80
# [8] = dose: 100.0 mg/kg/injection, schedule: Q04DX002 (ip), vehicle: Klucel (hydroxypropylcellulose) (HPC)
# [9] = dose: 200.0 mg/kg/injection, schedule: Q04DX002 (ip), vehicle: Klucel (hydroxypropylcellulose) (HPC)
# [10] = dose: 100.0 mg/kg/injection, schedule: Q04DX003 (ip), vehicle: acetone
# [11] = dose: 100.0 mg/kg/injection, schedule: Q04DX003 (ip), vehicle: saline
# [12] = dose: 200.0 mg/kg/injection, schedule: Q04DX003 (ip), vehicle: saline
# [13] = dose: 400.0 mg/kg/injection, schedule: Q04DX003 (ip), vehicle: saline
# [14] = dose: 50.0 mg/kg/injection, schedule: Q01DX009 (ip), vehicle: Klucel (hydroxypropylcellulose) (HPC)
# [15] = dose: 400.0 mg/kg/injection, schedule: Q04DX002 (ip), vehicle: Klucel (hydroxypropylcellulose) (HPC)
# [16] = dose: 100.0 mg/kg/injection, schedule: Q01DX009 (ip), vehicle: saline
# [17] = dose: 200.0 mg/kg/injection, schedule: Q01DX009 (ip), vehicle: saline
# [18] = dose: 400.0 mg/kg/injection, schedule: Q01DX009 (ip), vehicle: saline
structure (smiles),measurement,setting,value
ClCC[N-]CC[N-]CCCl.ClCC[N-]CC[N-]CCCl.[O-][Cl+3]([O-])([O-])O.[Zn+2],T/C,[1],102 % of control
same,T/C,"dose: 5.0 mg/kg/injection, schedule: Q03DX003 (ip), vehicle: saline",95 % of control
same,T/C,"dose: 5.0 mg/kg/injection, schedule: Q## X003 (ip), vehicle: saline",95 % of control
same,T/C,"dose: 9.0 mg/kg/injection, schedule: Q01DX009 (ip), vehicle: Klucel (hydroxypropylcellulose) (HPC)",94 % of control
same,T/C,"dose: 10.0 mg/kg/injection, schedule: Q01DX009 (ip), vehicle: Klucel (hydroxypropylcellulose) (HPC)",97 % of control
same,T/C,"dose: 10.0 mg/kg/injection, schedule: Q03DX003 (ip), vehicle: saline",104 % of control
same,T/C,"dose: 10.0 mg/kg/injection, schedule: Q## X003 (ip), vehicle: saline",104 % of control
same,T/C,"dose: 18.0 mg/kg/injection, schedule: Q01DX009 (ip), vehicle: Klucel (hydroxypropylcellulose) (HPC)",100 % of control
same,T/C,"dose: 20.0 mg/kg/injection, schedule: Q01DX009 (ip), vehicle: Klucel (hydroxypropylcellulose) (HPC)",116 % of control
same,T/C,"dose: 20.0 mg/kg/injection, schedule: Q03DX003 (ip), vehicle: saline",121 % of control
same,T/C,"dose: 20.0 mg/kg/injection, schedule: Q## X003 (ip), vehicle: saline",121 % of control
same,T/C,"dose: 40.0 mg/kg/injection, schedule: Q03DX003 (ip), vehicle: saline",161 % of control
same,T/C,"dose: 40.0 mg/kg/injection, schedule: Q## X003 (ip), vehicle: saline",161 % of control
same,T/C,"dose: 80.0 mg/kg/injection, schedule: Q03DX003 (ip), vehicle: saline",80 % of control
CCN(CC)c1ccc(C(=O)OCCNC2CCCCC2)cc1,T/C,"dose: 75.0 mg/kg/injection, schedule: Q01DX001 (ip), vehicle: carboxymethylcellulose (CMC)",94 % of control
same,T/C,"dose: 150.0 mg/kg/injection, schedule: Q01DX001 (ip), vehicle: carboxymethylcellulose (CMC)",98 % of control
O=[N+]([O-])c1cc([N+](=O)[O-])c(Br)cc1F,T/C,"dose: 2.5 mg/kg/injection, schedule: Q01DX009 (ip), vehicle: Klucel (hydroxypropylcellulose) (HPC)",92 % of control
same,T/C,[1],99 % of control
O=C(Nc1cc(Cl)ccc1Cl)C(Cl)(Cl)Cl,T/C,"dose: 100.0 mg/kg/injection, schedule: Q01DX001 (ip), vehicle: Klucel (hydroxypropylcellulose) (HPC)",97 % of control
same,T/C,"dose: 200.0 mg/kg/injection, schedule: Q01DX001 (ip), vehicle: Klucel (hydroxypropylcellulose) (HPC)",103 % of control
same,T/C,"dose: 400.0 mg/kg/injection, schedule: Q01DX001 (ip), vehicle: Klucel (hydroxypropylcellulose) (HPC)",93 % of control
CC(=O)OCC1OC(OC2CCCc3c(O)c4c(c(O)c32)C(=O)c2ccccc2C4=O)C(OC(C)=O)C(OC(C)=O)C1OC(C)=O (centres undefined),T/C,"dose: 40.0 mg/kg/injection, schedule: Q01DX001 (ip), vehicle: saline",86 % of control
same,T/C,"dose: 80.0 mg/kg/injection, schedule: Q01DX001 (ip), vehicle: saline",92 % of control
Cc1ccc(NC(=O)Oc2ccccc2C(N)=O)cc1NC(=O)Oc1ccccc1C(N)=O,T/C,[2],93 % of control
same,T/C,[3],94 % of control
same,T/C,"dose: 400.0 mg/kg/injection, schedule: Q01DX009 (ip), vehicle: Klucel (hydroxypropylcellulose) (HPC)",89 % of control
CCNc1cc(Cl)nc(N)n1,T/C,[4],92 % of control
same,T/C,[5],105 % of control
same,T/C,"dose: 200.0 mg/kg/injection, schedule: Q01DX009 (ip), vehicle: saline with Tween-80",101 % of control
same,T/C,[6],98 % of control
same,T/C,"dose: 400.0 mg/kg/injection, schedule: Q01DX009 (ip), vehicle: saline with Tween-80",104 % of control
same,T/C,[7],104 % of control
C=CCNC(=O)/C=C\C(=O)O,T/C,[8],99 % of control
same,T/C,[9],96 % of control
COP(=O)(OC)C1CC2CCC1C2 (centres undefined),T/C,[10],102 % of control
same,T/C,"dose: 200.0 mg/kg/injection, schedule: Q04DX003 (ip), vehicle: acetone",102 % of control
same,T/C,"dose: 400.0 mg/kg/injection, schedule: Q04DX003 (ip), vehicle: acetone",100 % of control
C[N+](C)(C)CC1CCCC1C[N+](C)(C)C (centres undefined),T/C,"dose: 50.0 mg/kg/injection, schedule: Q04DX003 (ip), vehicle: saline",110 % of control
same,T/C,[11],96 % of control
same,T/C,[12],102 % of control
same,T/C,[13],90 % of control
CN(/C(N)=N/[N+](=O)[O-])c1cccnc1,T/C,"dose: 6.0 mg/kg/injection, schedule: Q04DX002 (ip), vehicle: Klucel (hydroxypropylcellulose) (HPC)",103 % of control
same,T/C,"dose: 12.0 mg/kg/injection, schedule: Q04DX002 (ip), vehicle: Klucel (hydroxypropylcellulose) (HPC)",103 % of control
same,T/C,"dose: 25.0 mg/kg/injection, schedule: Q04DX002 (ip), vehicle: Klucel (hydroxypropylcellulose) (HPC)",103 % of control
same,T/C,[14],103 % of control
same,T/C,"dose: 50.0 mg/kg/injection, schedule: Q04DX002 (ip), vehicle: Klucel (hydroxypropylcellulose) (HPC)",95 % of control
same,T/C,[2],107 % of control
same,T/C,[8],91 % of control and 92 % of control
CC(C)OC(=S)SSC(=S)OC(C)C,T/C,[14],105 % of control
same,T/C,"dose: 100.0 mg/kg/injection, schedule: Q01DX001 (ip), vehicle: saline",96 % of control
same,T/C,[2],92 % of control
same,T/C,"dose: 100.0 mg/kg/injection, schedule: Q04DX003 (ip), vehicle: other",107 % of control
same,T/C,"dose: 200.0 mg/kg/injection, schedule: Q01DX001 (ip), vehicle: saline",100 % of control
same,T/C,[3],90 % of control
same,T/C,"dose: 200.0 mg/kg/injection, schedule: Q04DX003 (ip), vehicle: other",98 % of control
same,T/C,"dose: 400.0 mg/kg/injection, schedule: Q01DX001 (ip), vehicle: saline",102 % of control
CCc1cc2oc(C)c(C)c2c(N=Nc2cccc([N+](=O)[O-])c2)c1O,T/C,[8],96 % of control
same,T/C,[9],96 % of control
same,T/C,[15],93 % of control
O=C(C=C(C(F)(F)F)C(F)(F)F)c1cccc([N+](=O)[O-])c1,T/C,"dose: 6.25 mg/kg/injection, schedule: Q01DX009 (ip), vehicle: saline with Tween-80",101 % of control
same,T/C,"dose: 12.5 mg/kg/injection, schedule: Q01DX009 (ip), vehicle: saline with Tween-80",103 % of control
same,T/C,"dose: 25.0 mg/kg/injection, schedule: Q01DX009 (ip), vehicle: saline with Tween-80",97 % of control
CCCCCCCOC(C[N+](=O)[O-])C(Cl)(Cl)Cl (centres undefined),T/C,"dose: 25.0 mg/kg/injection, schedule: Q01DX009 (ip), vehicle: acetone",95 % of control
same,T/C,"dose: 50.0 mg/kg/injection, schedule: Q01DX009 (ip), vehicle: acetone",93 % of control
same,T/C,[10],99 % of control
Cc1ccc2c(ccc3cc(C)ccc32)c1,T/C,[8],122 % of control
same,T/C,[9],101 % of control
same,T/C,[15],97 % of control
Nc1cnccc1Nc1ccc(-c2ccccc2)cc1,T/C,[4],92 % of control
CC(C)C(N)C(=O)NCC(=O)NCC(=O)O (stereo not drawn) (H-[ξV]-Gly-Gly-OH),T/C,[16],98 % of control
same,T/C,[11],102 % of control
same,T/C,[17],96 % of control
same,T/C,[12],94 % of control
same,T/C,[18],98 % of control
same,T/C,[13],100 % of control
Cc1cccc(C)c1-c1c2ccccc2cc2ccccc12,T/C,[16],95 % of control
same,T/C,[5],96 % of control
same,T/C,[17],93 % of control
same,T/C,[6],96 % of control
same,T/C,[18],87 % of control
same,T/C,[7],93 % of control
CCSC(=O)n1ncc2cc(Cl)ccc21,T/C,"dose: 100.0 mg/kg/injection, schedule: Q01DX001 (ip), vehicle: other",105 % of control
same,T/C,"dose: 200.0 mg/kg/injection, schedule: Q01DX001 (ip), vehicle: other",97 % of control
same,T/C,"dose: 400.0 mg/kg/injection, schedule: Q01DX001 (ip), vehicle: other",108 % of control
